Laboratory results taken from ChEMBL document CHEMBL1944517, “New inhibitors of dihydroorotate dehydrogenase (DHODH) based on the 4-hydroxy-1,2,5-oxadiazol-3-yl (hydroxyfurazanyl) scaffold” (Eur J Med Chem, 2012).
pIC50: −log10 of the molar value.

Target: Dihydroorotate dehydrogenase (quinone), mitochondrial (Rattus norvegicus, UniProt Q63707)
Assay: Inhibition of dihydroorotate dehydrogenase in Wistar rat liver mitochondrial/microsomal membranes measured for 5 mins by 2,6-dichlorophenolindophenol reduction-based spectrophotometry
Assay type: cell membranes, Membrane

Dihydroorotate dehydrogenase (quinone), mitochondrial, sequence (Q63707 whole entry): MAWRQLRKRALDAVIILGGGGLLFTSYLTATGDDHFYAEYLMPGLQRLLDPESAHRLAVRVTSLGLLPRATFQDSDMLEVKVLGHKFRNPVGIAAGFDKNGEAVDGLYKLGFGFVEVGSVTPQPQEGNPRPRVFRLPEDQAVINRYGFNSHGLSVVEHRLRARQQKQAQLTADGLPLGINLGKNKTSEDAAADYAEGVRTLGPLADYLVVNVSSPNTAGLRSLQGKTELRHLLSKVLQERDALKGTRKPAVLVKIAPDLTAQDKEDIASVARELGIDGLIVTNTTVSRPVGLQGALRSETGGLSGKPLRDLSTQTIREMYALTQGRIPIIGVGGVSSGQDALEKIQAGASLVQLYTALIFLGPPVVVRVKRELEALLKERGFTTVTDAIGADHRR

pIC50 | Compound
7.30 | O=C(Nc1c(F)c(F)c(-c2cccc(OC(F)(F)F)c2)c(F)c1F)c1no[nH]c1=O
6.06 | O=C(Nc1c(F)cc(-c2ccccc2)cc1F)c1no[nH]c1=O
7.18 | O=C(Nc1c(F)c(F)c(-c2ccccc2)c(F)c1F)c1no[nH]c1=O
4.60 | O=C(Nc1ccc(-c2cccc(C(F)(F)F)c2)cc1)c1nonc1O
5.64 | O=C(Nc1c(F)cc(-c2ccc(C(F)(F)F)cc2)cc1F)c1nonc1O
5.37 | O=C(Nc1ccc(C(F)(F)F)cc1)c1nonc1O
4.31 | O=C(Nc1ccc(-c2ccc(C(F)(F)F)cc2)cc1)c1nonc1O
6.06 | O=C(Nc1c(F)cc(-c2cccc(C(F)(F)F)c2)cc1F)c1nonc1O
6.31 | O=C(Nc1c(F)c(F)c(-c2ccc(C(F)(F)F)cc2)c(F)c1F)c1no[nH]c1=O
6.92 | O=C(Nc1c(F)c(F)c(-c2cccc(C(F)(F)F)c2)c(F)c1F)c1nonc1O
4.35 | O=C(Nc1ccccc1-c1ccccc1)c1no[nH]c1=O
4.96 | O=C(Nc1ccc(-c2ccccc2)cc1)c1nonc1O
